Results published in patent US12472185B2, “Methods for killing antibiotic tolerant bacteria” (THE PENN STATE RESEARCH FOUNDATION, priority 2020, dated 2025).
Values after ≈ are worked out from the molar mass of the structure shown. Values joined by “and” are separate entries in the source; they are usually repeats but may differ in a detail not shown here. Equal entries are not always repeated.

What was measured:
[1] = system: E. coli persister cells; assay: ChemBridge screen for persister cell killing; type: cell-based, Escherichia coli; settings: 100 μM, 24 hr
Protocol: FIG. 1. […] Escherichia coli persister cells were treated for 24 hr at 100 μM with: • 1: N-(3,4-dichlorophenyl)-N′-(3-fluorophenyl) thiourea; • 2: 2-({2-[(4-bromophenyl)amino]-4-quinazolinyl}amino)ethanol hydrochloride; • 3: 2-[(6-phenyl-2,3,4,9-tetrahydro-1H-carbazol-1-yl)amino] ethanol; • 4: 1-(3,6-dichloro-9H-carbazol-9-yl)-3-(2-methyl-1H-imidazol-1-yl)-2-propanol; • 5: N-[2-(4-fluorophenyl)ethyl]-N′-(4-nitrophenyl) thiourea; • 6: N-(4-chlorobenzyl)-N′-4-pyridinylthiourea; • 7: N′-(3,5-dichloro-2-hydroxybenzylidene)-2-oxo-4-phenyl-3-pyrrolidinecarbohydrazide; and • 8: [(5-nitro-3-phenyl-1H-indol-2-yl)methyl]amine hydrochloride (NPIMA, structure shown in inset).
To identify compounds that kill E. coli persister cells, 10,000 compounds of the DIVERset Library from ChemBridge (San Diego, CA) were tested by adding 4 μl of each (in DMSO, final concentration 100 μM) to 186 μl of LB in 96-well plates along with 10 μl of persister cells; the persister cells were added after the ChemBridge chemical since LB wakes persister cells (Kim, Yamasaki, et al., 2018). For the negative control, pure DMSO (final concentration 2 vol %) was used. The degree of inhibition was determined by the change in turbidity at 600 nm after 24 hr. The best 26 compounds were re-tested with the same conditions.
To screen directly for killing persister cells, a high-throughput approach using 96-well microtiter plates was devised that consisted of (a) washing persister cells formed from exponentially-growing cells using rifampicin pretreatment followed by ampicillin treatment, (b) adding 10 μl of the persister cells to 190 μl of LB containing one each of the 10,000 compounds of the DiverSet library dissolved in dimethyl sulfoxide (100 μM final concentration), and (c) monitoring for growth via change in turbidity for 24 hr. With this approach, we allowed for up to a 140-fold change in turbidity (0.005 could be increased to 0.69).

[2] = system: S. aureus ATCC29213; assay: Minimum inhibitory concentration (MIC); type: cell-based; settings: Staphylococcus aureus, LB, 24 hr
Protocol: (§1) The bacteria used in this study are E. coli K-12 BW25113 (Baba et al., 2006), S. aureus ATCC29213, and P. aeruginosa PA14 (Liberati et al., 2006). Lysogeny broth (LB; Bertani, 1951) was used at 37° C. for culturing the bacteria. 2-(Aminomethyl)-indole was obtained from Sigma-Aldrich (catalog number 563838), and 2-methyl-5-nitro-3-phenyl-1H-indole was obtained from ChemBridge (San Diego, CA).
(§2) To determine the MICs of NPIMA and 5-iodoindole for E. coli K-12, S. aureus, and P. aeruginosa PA14, cells were inoculated into LB at varying concentrations and grown for 24 hr. The MIC was determined as the lowest concentration that prevented an increase in growth as evidenced by a lack of change of turbidity.

[3] = system: E. coli K-12 BW25113; assay: Minimum inhibitory concentration (MIC); type: cell-based; settings: Escherichia coli, LB, 24 hr
Protocol: as §1, §2

[4] = system: P. aeruginosa PA14; assay: Minimum inhibitory concentration (MIC); type: cell-based; settings: Pseudomonas aeruginosa, LB, 24 hr
Protocol: as §1, §2

[5] = system: E. coli BW25113 persister cells; assay: Survival of persister cells (rifampicin/ampicillin generated); type: cell-based, Escherichia coli; settings: 100 μM, 6 hr
Protocol: FIG. 3. NPIMA kills Escherichia coli, Pseudomonas aeruginosa, persister cells. Survival of (a) E. coli BW25113 and (b) P. aeruginosa PA14 after treatment with NPIMA (100 μM), 5-iodoindole (5-II, 100 μM), and DMSO for 6 hr. Asterisk indicates no viable cells detected. DMSO, dimethyl sulfoxide; NPIMA, 5-nitro-3-phenyl-1H-indol-2-yl-methylamine hydrochloride.
E. coli persister cells were prepared following our previous method (Kim, Yamasaki, et al., 2018; Kwan, Valenta, Benedik, & Wood, 2013). Exponentially-growing cells (turbidity of 0.8 at 600 nm) were treated with rifampicin (100 μg/ml for 30 min) to stop transcription, washed, and any remaining nonpersister cells were lysed by ampicillin in LB (100 μg/ml for 3 hr). Cells were harvested by centrifugation (17,000 g for 1 min) and washed with 1× phosphate-buffered saline buffer (PBS, 8 g NaCl, 0.2 g KCl, 1.15 g Na2HPO4, and 0.2 g KH2PO4 per 1,000 ml) twice to remove all possible carbon sources, then resuspended with 1×PBS. Natural E. coli persister cells were generated by treating stationary-phase cells (turbidity of 6 at 600 nm) with ampicillin (100 μg/ml) for 3 hr. P. aeruginosa PA14 persister cells were prepared by incubating to the stationary phase, diluting sixfold, and treating with carbonyl cyanide m-chlorophenylhydrazone (CCCP, 50 mg/ml stock solution in dimethly sulfoxide [DMSO]) to stop adenosine triphosphate (ATP) production (200 μg/ml for 3 hr), washed twice with 0.85% NaCl (5,000 g for 10 min), and any nonpersister cells were killed by ciprofloxacin (5 μg/ml) in LB for 3 hr. Following the antibiotic treatment, bacteria were washed twice with 0.85% NaCl (5,000 g for 10 min).
For bacterial viability, cells were washed twice with 0.85% NaCl, resuspended in 1×PBS, and cell counts were determined via the drop assay (Donegan, Matyac, Seidler, & Porteous, 1991). […] Cell viability was determined via a cell counting kit (CCK-8 Kit, ab228554; Abcam), and cytotoxicity was determined via the lactate dehydrogenase (LDH) assay (LDH Assay Kit, MK401; Takara).

[6] = system: P. aeruginosa PA14 exponential cells; assay: Survival of exponentially-growing cells (drop assay); type: cell-based, Pseudomonas aeruginosa; settings: 100 μM
Protocol: (§3) FIG. 2. NPIMA eradicates Escherichia coli, Pseudomonas aeruginosa, and Staphylococcus aureus exponential cells. Survival after 6 hr for (a) E. coli BW25113 with NPIMA and 5-iodoindole at 100 μM, (b) P. aeruginosa PA14 with NPIMA and 5-iodoindole at 100 μM, and (c) S. aureus with NPIMA and 5-iodoindole at 200 μM. Asterisk indicates no viable cells detected. NPIMA, 5-nitro-3-phenyl-1H-indol-2-yl-methylamine hydrochloride.
(§4) For bacterial viability, cells were washed twice with 0.85% NaCl, resuspended in 1×PBS, and cell counts were determined via the drop assay (Donegan, Matyac, Seidler, & Porteous, 1991). For human cell viability, pre-cultured human cancer HT-29 cells were dispensed in 98 μl in 96-well plates with approximately 5,000 cells/well. NPIMA was added (2 μl) to produce concentrations of 5, 10, 100, and 200 μM. For controls, Triton X-100 (positive control) and DMSO (negative solvent control), were used, and the medium was used for background. Plates were incubated in a humidified incubator (37° C., 5% CO2) for 24 hr. Cell viability was determined via a cell counting kit (CCK-8 Kit, ab228554; Abcam), and cytotoxicity was determined via the lactate dehydrogenase (LDH) assay (LDH Assay Kit, MK401; Takara).

[7] = system: E. coli BW25113 exponential cells; assay: as above; type: cell-based, Escherichia coli; settings: 100 μM, 6 hr
Protocol: as §3
FIG. 8. NPIMA structure function relationships. Exponential cells of Escherichia coli BW25113 were treated with (a) 2-(aminomethyl) indole, and (b) 2-methyl-5-nitro-3-phenyl-1H-indole for 6 hr. NPIMA, 5-nitro-3-phenyl-1Hindol-2-yl-methylamine hydrochloride.
as §4

[8] = system: E. coli persister cells; settings: 1 mM; Lee et al., 2016; cited from earlier work
[9] = system: S. aureus cells; assay: Survival of cells (drop assay); type: cell-based, Staphylococcus aureus; settings: 200 μM
Protocol: as §3, §4

[10] = system: E. coli persister cells; assay: Re-test of resuscitation hits in minimal alanine medium, 96-well plates; type: cell-based, Escherichia coli; settings: 100 μM
Protocol: ChemBridge screen to identify resuscitation compounds. To identify compounds that resuscitate E. coli persister cells, the DIVERset Library from ChemBridge (San Diego, CA) containing 10,000 druglike compounds with high pharmacophore diversity was evaluated by adding 4 μL of each compound (final concentration 100 μM, dissolved in DMSO) to 186 μL of LB in 96 well plates and then adding 10 μL of persister cells. The negative control was 2 vol % DMSO. Resuscitation was calculated as the change in turbidity at 600 nm. The compounds that were identified initially were re-tested in M9 minimal medium with 5× alanine (24).

[11] = system: E. coli BW25113 persister cells; assay: Single-cell persister resuscitation; type: cell-based, Escherichia coli; settings: 100 μM, M9 alanine (5×) agarose gel pads, 6 h
From the text: FIG. 12. RluD increases persister resuscitation by increasing ribosomes for resuscitation. (A) Single-cell persister resuscitation as determined using light microscopy (Zeiss Axio Scope.A1). The fold-change in resuscitation is relative to BW25113 with DMSO for BW25113 with BPOET, relative to BW25113 for the ΔrluD mutant, relative to BW25113/pCA24N for the strain producing RluD from pCA24N plasmid in BW25113, and relative to MG1655 for ΔrybB. M9 glucose (0.4%) agarose gel pads were used for all the strains except BW25113 with BPOET where M9 alanine (5×) agarose gel pads including 100 μM of BPOET or DMSO were used. The results are the combined observations from two independent experiments after 6 h for the BW25113 with BPOET, after 4 h for BW25113 and its deletion mutants, and after 6 h for cells harboring pCA24N and its derivatives as well as for MG1655 and MG1655 ΔrybB. Error bars indicate standard deviations. (B) Active 70S ribosomes in single persister cells for MG1655-ASV/pCA24N-rluD (“RluD”) VS. MG1655-ASV/pCA24N (“Empty”). Cells are shown on agarose gel pads at time 0 for resuscitation; i.e., after the formation of persister cells. Representative results from three independent cultures are shown.
Single-cell persister resuscitation. As described previously (19), 5 μL of cell populations consisting of 100% persister cells were added to 1.5% agarose gel pads containing either M9 medium with glucose (0.4 wt %) or alanine (5×) as a carbon source (24), and resuscitation was monitored at 37° C. via a light microscope (Zeiss Axio Scope.A1, bl_ph channel at 1000 ms exposure).
Table 5. Single persister cell resuscitation. Single-cell persister resuscitation as determined using light microscopy (Zeiss Axio Scope.A1) using agarose gel pads. The fold-change in resuscitation is relative to BW25113 with DMSO for BW25113 with BPOET, relative to BW25113 for the ΔrluD, relative to BW25113/pCA24N for the strain producing RluD from pCA24N in BW25113, and relative to MG1655 for ΔrybB. […]

Fc1cccc(NC(=S)Nc2ccc(Cl)c(Cl)c2)c1 [compound 1, N-(3,4-dichlorophenyl)-N′-(3-fluorophenyl) thiourea]
persister killing, second screen (FIG. 1) [1]: Most effective

Ic1ccc2[nH]ccc2c1 [5-iodoindole, reference compound]
MIC [2]: 2000 µM (≈ 486 µg/mL)
MIC [3]: 2000 µM (≈ 486 µg/mL)
MIC [4]: 2000 µM (≈ 486 µg/mL)
killing of E. coli persister cells [5]: much less effective
killing of P. aeruginosa [6]: ineffective
killing of exponential E. coli cells [7]: much less effective
persisters killed [8]: 99.993%
killing of S. aureus [9]: ineffective

Cc1nccn1CC(O)Cn1c2ccc(Cl)cc2c2cc(Cl)ccc21 (centres unmarked) [compound 4, 1-(3,6-dichloro-9H-carbazol-9-yl)-3-(2-methyl-1H-imidazol-1-yl)-2-propanol]
persister killing, second screen (FIG. 1) [1]: Most effective

NCc1cc2ccccc2[nH]1 [2-(aminomethyl)-indole]
killing of exponential E. coli cells [7]: unable to kill E. coli

OCCNC1CCCc2c1[nH]c1ccc(-c3ccccc3)cc21 (centres unmarked) [compound 3, 2-[(6-phenyl-2,3,4,9-tetrahydro-1H-carbazol-1-yl)amino] ethanol]
persister killing, second screen (FIG. 1) [1]: Most effective

Cc1[nH]c2ccc([N+](=O)[O-])cc2c1-c1ccccc1 [2-methyl-5-nitro-3-phenyl-1H-indole]
killing of exponential E. coli cells [7]: unable to kill E. coli

O=C1NCC(c2ccccc2)C1C(=O)N/N=C\c1cc(Cl)cc(Cl)c1O (centres unmarked) [compound 7, N′-(3,5-dichloro-2-hydroxybenzylidene)-2-oxo-4-phenyl-3-pyrrolidinecarbohydrazide]
persister killing, second screen (FIG. 1) [1]: Most effective

S=C(NCc1ccc(Cl)cc1)Nc1ccncc1 [compound 6, N-(4-chlorobenzyl)-N′-4-pyridinylthiourea]
persister killing, second screen (FIG. 1) [1]: Most effective

CCn1c(SCC(=O)c2ccc(Br)cc2)nc2sc3c(c2c1=O)CCCC3 [BPOET, 2-{[2-(4-bromophenyl)-2-oxoethyl]thio}-3-ethyl-5,6,7,8-tetrahydro[1]benzothieno[2,3-d]pyrimidin-4(3H)-one]
increase in persister cell waking based on turbidity [10]: 44 fold
% waking [11]: 20 ± 13%
Fold-change in resuscitation relative to BW25113 with DMSO [11]: 4 fold and 4 ± 3 fold
Waking cells [11]: 38 ± 18

Cl.OCCNc1nc(Nc2ccc(Br)cc2)nc2ccccc12 [compound 2, 2-({2-[(4-bromophenyl)amino]-4-quinazolinyl}amino)ethanol hydrochloride]
persister killing, second screen (FIG. 1) [1]: Most effective
